Literature values, collected in patent US6174531A, “Methods of preparation of bioginkgo” (priority 1998, dated 2001).
Where two headings read alike, the source gives them in different places.

How the values were obtained:
[1] = test system: PAF platelet membrane receptor; conditions: in vitro, literature
[2] = rats, literature
[3] = humans, literature

SMILES: C[C@@H]1C(=O)O[C@H]2C[C@@]34[C@H]5C[C@@H](C(C)(C)C)[C@]36[C@@H](OC(=O)[C@@H]6O)O[C@@]4(C(=O)O5)[C@]21O [ginkgolide A]
- specificity of inhibition of PAF binding to its platelet receptors [1]: highly specific

SMILES: CC1C(=O)OC2C(O)C34C5CC(C(C)(C)C)C36C(OC(=O)C6O)OC4(C(=O)O5)C12O (stereo not drawn) [ginkgolide B]
- half-life compared with ginkgolide A [2]: longer half-life
- specificity of inhibition of PAF binding to its platelet receptors [1]: highly specific
- IC50 ([1]; read-out: IC50, inhibition of PAF binding to its platelet receptors): ~100 nM
- half-life compared with ginkgolide A [3]: longer half-life

SMILES: CC1C(=O)OC2C(O)C34C5OC(=O)C3(OC3OC(=O)C(O)C34C(C(C)(C)C)C5O)C12O (stereo not drawn) [ginkgolide C]
- specificity of inhibition of PAF binding to its platelet receptors [1]: highly specific
